Measurements reported in US12655116B2, “Substituted isophthalic acid diamides” (Bayer Aktiengesellschaft, priority 2020, dated 2026).

Tests used:
AMARE [1] = assay: Post-emergence herbicidal action against AMARE; assay type: in vivo, Amaranthus retroflexus; conditions: 20 g/ha, visual assessment about 3 weeks after treatment, 100% = plants have died, 0% = like control plants
How it was run: (§1)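 Post-emergence greenhouse test; one-leaf stage, 2–3 wk post-sowing, sandy loam. Foliar spray of WP/EC in water, 600–800 l/ha, +0.2% wetting agent. Visual % action at ~3 wk vs untreated (100% = plants dead).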

ECHCG [2] = assay: Post-emergence herbicidal action against ECHCG; assay type: in vivo, Echinochloa crus-galli
How it was run: as §1

ABUTH [3] = assay: Pre-emergence herbicidal action against ABUTH; assay type: in vivo, Abutilon theophrasti; conditions: for Pre-emergence action against ABUTH (herbicidal activity in percent): dosage 20 g/ha, scored visually after 3 weeks vs untreated controls, 100% = plants have died, 0% = like control plants
How it was run: (§2)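 Herbicidal effect was assessed 3 weeks after treatment by visual comparison with untreated controls, 100% denoting dead plants. Aqueous WP or EC preparations had been applied at 600 to 800 l/ha with 0.2% wetting agent to the soil covering freshly sown seeds.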

POLCO = assay: Pre-emergence herbicidal action against POLCO; assay type: in vivo, Polygonum convolvulus
Excerpt: Seeds of monocotyledonous and dicotyledonous weed plants and crop plants are laid out in sandy loam soil in wood-fiber pots and covered with soil. The compounds of the invention, formulated in the form of wettable powders (WP) or as emulsion concentrates (EC), are then applied to the surface of the covering soil in the form of an aqueous suspension or emulsion at a water application rate equivalent to 600 to 800 l/ha, with addition of 0.2% wetting agent. After the treatment, the pots are placed in a greenhouse and kept under good growth conditions for the trial plants. The damage to the test plants is scored visually after a test period of 3 weeks by comparison with untreated controls (herbicidal activity in percent (%): 100% activity=the plants have died, 0% activity=like control plants). […] The tables below illustrate, in an illustrative manner, the post-emergence herbicidal action of the compounds of the invention, the herbicidal activity being stated in percent.

DIGSA = assay: Pre-emergence herbicidal action against DIGSA; assay type: in vivo, Digitaria sanguinalis
How it was run: as §2

ECHCG [4] = assay: Pre-emergence herbicidal action against ECHCG; assay type: in vivo, Echinochloa crus-galli; conditions: 80 g/ha
How it was run: as §2

SETVI [5] = assay: Pre-emergence herbicidal action against SETVI; assay type: in vivo, Setaria viridis; conditions: dosage 80 g/ha
How it was run: as §2

MATIN [6] = assay: Pre-emergence herbicidal action against MATIN; assay type: in vivo, Matricaria inodora
How it was run: as §2

VIOTR [7] = assay: Pre-emergence herbicidal action against VIOTR; assay type: in vivo, Viola tricolor
How it was run: as §2

ABUTH [8] = assay: Post-emergence herbicidal action against ABUTH; assay type: in vivo, Abutilon theophrasti; conditions: visual assessment about 3 weeks after treatment vs untreated controls
How it was run: as §1

SETVI [9] = assay: Post-emergence herbicidal action against SETVI; assay type: in vivo, Setaria viridis; conditions: dosage 20 g/ha
How it was run: as §1

AMARE [10] = assay: Pre-emergence herbicidal action against AMARE; assay type: in vivo, Amaranthus retroflexus
How it was run: as §2

VERPE [11] = assay: Pre-emergence herbicidal action against VERPE; assay type: in vivo, Veronica persica; conditions: dosage 80 g/ha
How it was run: as §2

VIOTR [12] = assay: Post-emergence herbicidal action against VIOTR; assay type: in vivo, Viola tricolor; conditions: 20 g/ha
How it was run: as §1

MATIN [13] = assay: Post-emergence herbicidal action against MATIN; assay type: in vivo, Matricaria inodora; conditions: dosage 20 g/ha
How it was run: as §1

ALOMY = assay: Pre-emergence herbicidal action against ALOMY; assay type: in vivo, Alopecurus myosuroides; conditions: 80 g/ha, pre-emergence, scored visually after 3 weeks vs untreated controls (100% = plants have died, 0% = like control plants)
How it was run: as §2

PHBPU = assay: Post-emergence herbicidal action against PHBPU; assay type: in vivo, Pharbitis purpurea; conditions: dosage 20 g/ha
How it was run: as §1

VERPE [14] = assay: Post-emergence herbicidal action against VERPE; assay type: in vivo, Veronica persica; conditions: 20 g/ha
How it was run: as §1

AVEFA = assay: Pre-emergence herbicidal action against AVEFA; assay type: in vivo, Avena fatua; conditions: 80 g/ha, pre-emergence
How it was run: as §2

[15] = 80 g/ha, scored visually after 3 weeks vs untreated controls (100% = plants have died, 0% = like control plants)
[16] = 20 g/ha, scored visually after 3 weeks vs untreated controls, 100% = plants have died, 0% = like control plants

**Q.** Which results are given for Cc1nnc(NC(=O)c2ccc(C(F)F)c(C(=O)NC3CC3)c2Br)o1 [Example 6-166]?
**A.** Post-emergence action at 20 g/ha against AMARE in % (AMARE [1]): 90%; Post-emergence action against ECHCG in % (ECHCG [2]; dosage 5 g/ha): 80%; Post-emergence action against ECHCG in % (ECHCG [2]; dosage 20 g/ha): 90%; Pre-emergence action against ABUTH (herbicidal activity) (ABUTH [3]; [15]): 100%; Pre-emergence action against POLCO in % (POLCO; dosage 80 g/ha): 80%; Pre-emergence action against DIGSA in % (DIGSA; dosage 20 g/ha): 80%; Pre-emergence action against DIGSA in % (DIGSA; dosage 80 g/ha): 100%; Pre-emergence action against ECHCG in % (ECHCG [4]): 80%; Pre-emergence action against SETVI in % (SETVI [5]): 100%; Pre-emergence action against MATIN in % (MATIN [6]; dosage 80 g/ha): 100%; Pre-emergence action against VIOTR in % (VIOTR [7]; dosage 80 g/ha): 100%; Post-emergence action against ABUTH in % (ABUTH [8]; dosage 20 g/ha): 80%; Post-emergence action against SETVI in % (SETVI [9]): 100%; Pre-emergence action against AMARE in % (AMARE [10]; [16]): 90%; Pre-emergence action against AMARE in % (AMARE [10]; [15]): 100%

**Q.** What does the source list for CC(=O)NC(=O)c1c(C(F)(F)F)ccc(C(=O)Nc2nnnn2C)c1Cl [Example 1-337]?
**A.** pest or weed control at 80 g/ha (ABUTH [3]; Abutilon theophrasti, 504 h, 80 g/ha, scored visually after 3 weeks vs untreated controls (100% = plants have died, 0% = like control plants)): 100%; pest or weed control at 20 g/ha (POLCO; Fallopia convolvulus, 504 h, dosage 20 g/ha): 80%; pest or weed control at 80 g/ha (POLCO; Fallopia convolvulus, 504 h, dosage 80 g/ha): 80%; pest or weed control at 80 g/ha (VERPE [11]; Veronica persica, 504 h): 90%; pest or weed control at 80 g/ha (DIGSA; Digitaria sanguinalis, 504 h, dosage 80 g/ha): 100%; pest or weed control at 80 g/ha (SETVI [5]; Setaria viridis, 504 h): 90%; pest or weed control at 20 g/ha (VIOTR [12]; Viola tricolor, 504 h): 80%; pest or weed control at 20 g/ha (VIOTR [7]; Viola tricolor, 504 h, dosage 20 g/ha): 80%; pest or weed control at 80 g/ha (VIOTR [7]; Viola tricolor, 504 h, dosage 80 g/ha): 80%; pest or weed control at 20 g/ha (ABUTH [8]; Abutilon theophrasti, 504 h, dosage 20 g/ha): 80%; pest or weed control at 20 g/ha (AMARE [10]; Amaranthus retroflexus, 504 h, 20 g/ha, scored visually after 3 weeks vs untreated controls, 100% = plants have died, 0% = like control plants): 90%; pest or weed control at 80 g/ha (AMARE [10]; Amaranthus retroflexus, 504 h, 80 g/ha, scored visually after 3 weeks vs untreated controls, 100% = plants have died, 0% = like control plants): 100%

**Q.** Which “Post-emergence action against MATIN in %” value (MATIN [13]) does the source give for CCn1nnnc1NC(=O)c1ccc(C(F)F)c(C(=O)NC)c1OC [Example 2-72] here?
**A.** 80%

**Q.** What about the “Pre-emergence action against ALOMY (herbicidal activity)” value (ALOMY) of the same compound?
**A.** 80%

**Q.** What about the “Post-emergence action against ECHCG in %” value (ECHCG [2]; dosage 5 g/ha) of the same compound?
**A.** 80%

**Q.** What about the “Post-emergence action against ECHCG in %” value (ECHCG [2]; dosage 20 g/ha) of the same compound?
**A.** 80%

**Q.** And the “Post-emergence action against PHBPU in %” value (PHBPU)?
**A.** 80%

**Q.** What about the “Pre-emergence action against ABUTH (herbicidal activity)” value (ABUTH [3]; [15]) of the same compound?
**A.** 100%

**Q.** And the “Pre-emergence action against ABUTH (herbicidal activity in percent)” value (ABUTH [3])?
**A.** 100%

**Q.** And the “Pre-emergence action against POLCO in %” value (POLCO; dosage 20 g/ha)?
**A.** 80%

**Q.** And the “Pre-emergence action against POLCO in %” value (POLCO; dosage 80 g/ha)?
**A.** 80%

**Q.** What about the “Pre-emergence action against VERPE in %” value (VERPE [11]) of the same compound?
**A.** 90%

**Q.** And the “Pre-emergence action against DIGSA in %” value (DIGSA; dosage 20 g/ha)?
**A.** 100%

**Q.** And the “Pre-emergence action against DIGSA in %” value (DIGSA; dosage 80 g/ha)?
**A.** 100%

**Q.** And the “Pre-emergence action against ECHCG in %” value (ECHCG [4])?
**A.** 100%

**Q.** What about the “Pre-emergence action against SETVI in %” value (SETVI [5]) of the same compound?
**A.** 100%

**Q.** What about the “Post-emergence action against VIOTR in %” value (VIOTR [12]) of the same compound?
**A.** 80%

**Q.** What about the “Pre-emergence action against MATIN in %” value (MATIN [6]; dosage 20 g/ha) of the same compound?
**A.** 100%

**Q.** What about the “Pre-emergence action against MATIN in %” value (MATIN [6]; dosage 80 g/ha) of the same compound?
**A.** 100%

**Q.** And the “Pre-emergence action against VIOTR in %” value (VIOTR [7]; dosage 20 g/ha)?
**A.** 100%

**Q.** What about the “Pre-emergence action against VIOTR in %” value (VIOTR [7]; dosage 80 g/ha) of the same compound?
**A.** 100%

**Q.** And the “Post-emergence action against ABUTH in %” value (ABUTH [8]; dosage 5 g/ha)?
**A.** 80%

**Q.** And the “Post-emergence action against ABUTH in %” value (ABUTH [8]; dosage 20 g/ha)?
**A.** 80%

**Q.** And the “Post-emergence action against SETVI in %” value (SETVI [9])?
**A.** 80%

**Q.** What about the “Pre-emergence action against AMARE in %” value (AMARE [10]; [16]) of the same compound?
**A.** 100%

**Q.** And the “Pre-emergence action against AMARE in %” value (AMARE [10]; [15])?
**A.** 100%

**Q.** And the “Post-emergence action against VERPE in %” value (VERPE [14])?
**A.** 80%

**Q.** With CCNC(=O)c1c(C(F)(F)F)ccc(C(=O)Nc2nnc(C)o2)c1CC [Example 6-211] as the compound, how does the “Post-emergence action at 20 g/ha against AMARE in %” value (AMARE [1]) read?
**A.** 90%

**Q.** What about the “Pre-emergence action against ALOMY (herbicidal activity)” value (ALOMY) of the same compound?
**A.** 90%

**Q.** And the “Pre-emergence action against AVEFA in %” value (AVEFA)?
**A.** 80%

**Q.** What about the “Post-emergence action against ECHCG in %” value (ECHCG [2]; dosage 20 g/ha) of the same compound?
**A.** 90%

**Q.** What about the “Pre-emergence action against ABUTH (herbicidal activity)” value (ABUTH [3]; [15]) of the same compound?
**A.** 100%

**Q.** And the “Pre-emergence action against ABUTH (herbicidal activity in percent)” value (ABUTH [3])?
**A.** 90%

**Q.** What about the “Pre-emergence action against POLCO in %” value (POLCO; dosage 80 g/ha) of the same compound?
**A.** 90%

**Q.** What about the “Pre-emergence action against VERPE in %” value (VERPE [11]) of the same compound?
**A.** 80%

**Q.** And the “Pre-emergence action against ECHCG in %” value (ECHCG [4])?
**A.** 100%

**Q.** What about the “Pre-emergence action against SETVI in %” value (SETVI [5]) of the same compound?
**A.** 100%

**Q.** What about the “Pre-emergence action against MATIN in %” value (MATIN [6]; dosage 80 g/ha) of the same compound?
**A.** 90%

**Q.** What about the “Pre-emergence action against VIOTR in %” value (VIOTR [7]; dosage 80 g/ha) of the same compound?
**A.** 80%

**Q.** And the “Post-emergence action against ABUTH in %” value (ABUTH [8]; dosage 5 g/ha)?
**A.** 80%

**Q.** What about the “Post-emergence action against ABUTH in %” value (ABUTH [8]; dosage 20 g/ha) of the same compound?
**A.** 90%

**Q.** And the “Pre-emergence action against AMARE in %” value (AMARE [10]; [16])?
**A.** 100%

**Q.** What about the “Pre-emergence action against AMARE in %” value (AMARE [10]; [15]) of the same compound?
**A.** 100%
